Laboratory results from PubChem BioAssay (NCI).
Values joined by “and” are separate entries in the source; they are usually repeats but may differ in a detail not shown here. Equal values may be shown once.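 A five-concentration, 48-hour dose response in 96-well plates underlies each endpoint, interpolated linearly between surrounding concentrations. Here, GI50 denotes the concentration required for 50% inhibition of growth. TGI: total growth inhibition.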

Experiments:
Assay in all cases: NCI-60 cell line screen, 48 h
MDA-MB-231 breast = test system: MDA-MB-231 breast
HOP-62 NSCLC = test system: HOP-62 NSCLC
K-562 leukemia = test system: K-562 leukemia
UACC-257 melanoma = test system: UACC-257 melanoma
HCT-15 colon = test system: HCT-15 colon
U251 CNS = test system: U251 CNS
MALME-3M melanoma = test system: MALME-3M melanoma
A498 renal = test system: A498 renal
SK-OV-3 ovarian = test system: SK-OV-3 ovarian
DU-145 prostate = test system: DU-145 prostate

| Structure (SMILES) | GI50 (MDA-MB-231 breast) | TGI (MDA-MB-231 breast) | GI50 (HOP-62 NSCLC) | TGI (HOP-62 NSCLC) | GI50 (K-562 leukemia) | TGI (K-562 leukemia) | GI50 (UACC-257 melanoma) | TGI (UACC-257 melanoma) | GI50 (HCT-15 colon) | TGI (HCT-15 colon) | GI50 (U251 CNS) | TGI (U251 CNS) | TGI (MALME-3M melanoma) | TGI (A498 renal) | TGI (SK-OV-3 ovarian) | GI50 (DU-145 prostate) | TGI (DU-145 prostate) | GI50 (A498 renal) | GI50 (SK-OV-3 ovarian) | GI50 (MALME-3M melanoma) |
| --- | --- | --- | --- | --- | --- | --- | --- | --- | --- | --- | --- | --- | --- | --- | --- | --- | --- | --- | --- | --- |
| Cc1csc2[n+]1-c1ccccc1N(C(=O)Nc1ccccc1)C(C)C2 (stereo unspecified) | 18.6 µM | 45.3 µM | 41.9 µM | > 100 µM | > 100 µM | > 100 µM | > 100 µM | > 100 µM | > 100 µM | > 100 µM | 69.4 µM | > 100 µM |  |  |  |  |  |  |  |  |
| CCOC(=O)C(=O)CC1=Nc2ccccc2SC(c2cccc(C)c2)C1 (stereo unspecified) |  |  |  | 49.4 µM |  | 57.6 µM |  | 33.2 µM |  | 35.7 µM |  | 31 µM | 31 µM | 33 µM |  |  |  |  |  |  |
| CC1=C(/C=C/C(C)=C/C2CC(N(C)C)=CC(=O)O2)C(C)(C)CCC1 (stereo unspecified) |  |  |  | 31 µM |  | 19.9 µM |  | 24.9 µM |  |  |  | 28.7 µM | 28.6 µM | 29.2 µM | 30.3 µM |  |  |  |  |  |
| CCCCCCCCCCCCCCCCCCn1cc[n+](C)c1 | 1.08 µM | 2.52 µM |  |  | 0.385 µM and 0.312 µM | > 100 µM | 1.53 µM | 3.91 µM | 0.689 µM and 0.888 µM | 2 µM and 2.34 µM | 0.372 µM and 0.397 µM | 1.51 µM |  | 3.09 µM | 4.14 µM and 2.62 µM | 0.801 µM and 0.87 µM | 2.06 µM and 2.1 µM | 1.07 µM | 1.23 µM and 1.1 µM |  |
| CC(=O)[O-].Cn1ccnc1CNCc1nccn1C.[Cu+2].[O-][Cl+3]([O-])([O-])[O-] |  |  | > 100 µM | > 100 µM | > 100 µM | > 100 µM |  |  |  |  | 33.7 µM | > 100 µM |  |  | > 100 µM |  |  |  | > 100 µM |  |
| COc1ccc(Cc2coc3ccccc3c2=O)cc1OC |  | > 100 µM |  | > 100 µM |  | > 100 µM |  | > 100 µM |  | > 100 µM |  | > 100 µM | > 100 µM |  | > 100 µM |  | > 100 µM |  |  |  |
| COc1ccc2c(c1)[nH]c(=O)c1c3cccc(F)c3cn21 | 0.283 µM | > 100 µM | 0.641 µM | 51.3 µM | 0.024 µM | 12.3 µM | > 92.9 µM | > 100 µM | 0.0458 µM | > 100 µM | 0.0472 µM | 14.8 µM |  | > 100 µM | > 83.5 µM | 0.0696 µM | > 100 µM | 0.0625 µM | 0.0848 µM |  |
| c1ccc(C2OC3(CCC[C@H]4C[C@H]43)O[C@H]2c2ccccc2)cc1 (stereo partly specified) |  |  |  | > 100 µM |  | > 100 µM |  | 77.7 µM |  | > 100 µM |  | > 100 µM | 88 µM | > 100 µM | > 100 µM |  |  |  |  |  |
| C[CH2][Ge]([CH2]C)([CH2]C)[O]C(=O)C(OC(C)=O)c1ccccc1 (stereo unspecified) |  |  | > 100 µM | > 100 µM | > 100 µM | > 100 µM | > 100 µM | > 100 µM | > 100 µM | > 100 µM | > 100 µM | > 100 µM | > 100 µM | > 100 µM | > 100 µM |  |  | > 100 µM | > 100 µM | > 100 µM |
